Data: ChEMBL document CHEMBL4373730, “Practical approaches to evaluating and optimizing brain exposure in early drug discovery” (Eur J Med Chem, 2019)

What was measured:
[1] = Brain to plasma partition coefficient, Kp of the compound in rat; format: ADME, organism-based; settings: brain and plasma
in vivo = settings: rat, brain and plasma
Description: Unbound brain-to-plasma concentration ratio in rat

Structure (SMILES) | Kp [1] | Kp uu (in vivo)
CN(C)CCCN1c2ccccc2Sc2ccc(Cl)cc21 [CHLORPROMAZINE] | 8.5 | 0.9
OCCOCCN1CCN(C2=Nc3ccccc3Sc3ccccc32)CC1 [QUETIAPINE] | 8.5 | 0.9
O=C(CCCN1CCC(O)(c2ccc(Cl)cc2)CC1)c1ccc(F)cc1 [HALOPERIDOL] | 8.5 | 0.9
O=C1Cc2cc(CCN3CCN(c4nsc5ccccc45)CC3)c(Cl)cc2N1 [ZIPRASIDONE] | 8.5 | 0.9
Cc1nc2n(c(=O)c1CCN1CCC(c3noc4cc(F)ccc34)CC1)CCCC2 [RISPERIDONE] | 8.5 | 0.9
CN1CCN(C2=Nc3cc(Cl)ccc3Nc3ccccc32)CC1 [CLOZAPINE] | 8.5 | 0.9
